# From patent publication US20240239861A1, “GLUCAGON-RECEPTOR SELECTIVE POLYPEPTIDES AND METHODS OF USE THEREOF” (i2O Therapeutics, Inc., priority 2016, published 2024)
# pEC50: −log10 of the molar value. Where a SMILES comes first, the peptide text is derived from it. [ ]: non-standard residue; d: D form. Aib = CC(C)(N)C(=O)O
# Molecular target: human GLP-1R (Homo sapiens, UniProt P43220)
# Assay: Peptide-receptor mediated cAMP accumulation (LANCE Ultra cAMP) in CHO-K1 cells transfected with human GLP-1R
# Type: cell-based
# Settings: hGLP1 pEC50 (cAMP mean (n = 3): 11 point curve starting at 1 nM, Table 3)
# Sequence of human GLP-1R (P43220 24-463): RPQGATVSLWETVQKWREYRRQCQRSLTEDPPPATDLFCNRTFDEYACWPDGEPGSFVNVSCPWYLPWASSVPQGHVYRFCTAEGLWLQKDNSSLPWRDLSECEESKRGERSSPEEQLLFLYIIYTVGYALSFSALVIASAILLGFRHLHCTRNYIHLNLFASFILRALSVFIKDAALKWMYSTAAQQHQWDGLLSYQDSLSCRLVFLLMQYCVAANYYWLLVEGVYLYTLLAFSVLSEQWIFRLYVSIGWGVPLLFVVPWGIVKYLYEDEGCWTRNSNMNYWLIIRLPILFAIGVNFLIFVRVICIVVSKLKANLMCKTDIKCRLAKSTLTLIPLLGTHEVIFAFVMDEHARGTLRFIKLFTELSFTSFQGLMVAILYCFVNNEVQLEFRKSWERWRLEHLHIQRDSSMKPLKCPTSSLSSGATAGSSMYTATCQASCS
row,Compound,pEC50
1,CC(C)C[C@H](NC(=O)[C@H](Cc1c[nH]c2ccccc12)NC(=O)[C@H](CCCCN)NC(=O)[C@H](CO)NC(=O)[C@H](Cc1ccc(O)cc1)NC(=O)[C@H](CC(=O)O)NC(=O)[C@H](CO)NC(=O)[C@@H](NC(=O)[C@H](Cc1ccccc1)NC(=O)[C@@H](NC(=O)CNC(=O)[C@H](Cc1c[nH]cn1)NC(=O)[C@H](CO)NC(=O)[C@@H](N)Cc1ccc(O)cc1)[C@@H](C)O)[C@@H](C)O)C(=O)N[C@@H](CC(=O)O)C(=O)N[C@@H](CO)C(=O)N[C@@H](C)C(=O)N[C@@H](CCCNC(=N)N)C(=O)N[C@@H](C)C(=O)N[C@@H](CCC(N)=O)C(=O)N[C@@H](CCC(=O)O)C(=O)N[C@@H](Cc1ccccc1)C(=O)N[C@H](C(=O)N[C@@H](CCCCN)C(=O)N[C@@H](Cc1c[nH]c2ccccc12)C(=O)N[C@@H](CC(C)C)C(=O)N[C@@H](CCC(=O)O)C(=O)N[C@@H](CC(=O)O)C(=O)N[C@@H](CCC(=O)O)C(=O)N1CCC[C@H]1C(=O)N[C@@H](CO)C(=O)N[C@@H](CO)C(=O)NCC(=O)N[C@@H](C)C(=O)N1CCC[C@H]1C(=O)N1CCC[C@H]1C(=O)N1CCC[C@H]1C(=O)N[C@@H](CO)C(=O)O)C(C)C [Compound A38] (H-YSHGTFTSDYSKWLDSARAQEFVKWLEDEPSSGAPPPS-OH; N-terminus assumed),< 9.00
2,CC(C)C[C@H](NC(=O)[C@H](Cc1ccc(O)cc1)NC(=O)[C@H](CCCCN)NC(=O)[C@H](CO)NC(=O)[C@H](Cc1ccc(O)cc1)NC(=O)[C@H](CC(=O)O)NC(=O)[C@H](CO)NC(=O)[C@@H](NC(=O)[C@H](Cc1ccccc1)NC(=O)[C@@H](NC(=O)CNC(=O)[C@H](Cc1c[nH]cn1)NC(=O)[C@H](CO)NC(=O)[C@@H](N)Cc1ccc(O)cc1)[C@@H](C)O)[C@@H](C)O)C(=O)N[C@@H](CC(=O)O)C(=O)NC(C)(C)C(=O)N[C@@H](CCCCN)C(=O)N[C@@H](CCCNC(=N)N)C(=O)N[C@@H](C)C(=O)N[C@@H](CCC(N)=O)C(=O)N[C@@H](CCC(=O)O)C(=O)N[C@@H](Cc1ccccc1)C(=O)N[C@H](C(=O)NC(C)(C)C(=O)N[C@@H](Cc1c[nH]c2ccccc12)C(=O)N[C@@H](CC(C)C)C(=O)N[C@@H](CCC(=O)O)C(=O)N[C@@H](CC(=O)O)C(=O)N[C@@H](CCC(=O)O)C(=O)N1CCC[C@H]1C(=O)N[C@@H](CCCNC(=N)N)C(=O)N[C@@H](CC(N)=O)C(=O)N[C@@H](CCCCN)C(=O)N[C@@H](CC(N)=O)C(=O)N[C@@H](CC(N)=O)C(=O)N1CCC[C@H]1C(=O)N1CCC[C@H]1C(=O)N[C@@H](CO)C(=O)O)C(C)C [Compound A49] (H-YSHGTFTSDYSKYLD[Aib]KRAQEFV[Aib]WLEDEPRNKNNPPS-OH; N-terminus assumed),< 9.00
3,CC(C)C[C@H](NC(=O)[C@H](CC(=O)O)NC(=O)[C@H](CC(C)C)NC(=O)[C@H](Cc1ccc(O)cc1)NC(=O)[C@H](CCCCN)NC(=O)[C@H](CO)NC(=O)[C@H](Cc1ccc(O)cc1)NC(=O)[C@H](CC(=O)O)NC(=O)[C@H](CO)NC(=O)[C@@H](NC(=O)[C@H](Cc1ccccc1)NC(=O)[C@@H](NC(=O)CNC(=O)[C@H](Cc1c[nH]cn1)NC(=O)[C@H](CO)NC(=O)[C@@H](N)Cc1ccc(O)cc1)[C@@H](C)O)[C@@H](C)O)C(=O)N[C@@H](CCCCN)C(=O)N[C@@H](CCCNC(=N)N)C(=O)N[C@@H](C)C(=O)N[C@@H](CCC(N)=O)C(=O)N[C@@H](CCC(=O)O)C(=O)N[C@@H](Cc1ccccc1)C(=O)N[C@H](C(=O)NC(C)(C)C(=O)N[C@@H](Cc1c[nH]c2ccccc12)C(=O)N[C@@H](CC(C)C)C(=O)N[C@@H](CCC(=O)O)C(=O)N[C@@H](CC(=O)O)C(=O)N[C@@H](CCC(=O)O)C(=O)N1CCC[C@H]1C(=O)N[C@@H](CO)C(=O)N[C@@H](CO)C(=O)NCC(=O)N[C@@H](C)C(=O)N1CCC[C@H]1C(=O)N1CCC[C@H]1C(=O)N1CCC[C@H]1C(=O)N[C@@H](CO)C(=O)O)C(C)C [Compound A51] (H-YSHGTFTSDYSKYLDLKRAQEFV[Aib]WLEDEPSSGAPPPS-OH; N-terminus assumed),< 9.00
4,CC(C)C[C@H](NC(=O)[C@H](Cc1ccc(O)cc1)NC(=O)[C@H](CCCCN)NC(=O)[C@H](CO)NC(=O)[C@H](Cc1ccc(O)cc1)NC(=O)[C@H](CC(=O)O)NC(=O)[C@H](CO)NC(=O)[C@@H](NC(=O)[C@H](Cc1ccccc1)NC(=O)[C@@H](NC(=O)CNC(=O)[C@H](Cc1c[nH]cn1)NC(=O)[C@H](CO)NC(=O)[C@@H](N)Cc1ccc(O)cc1)[C@@H](C)O)[C@@H](C)O)C(=O)N[C@@H](CC(=O)O)C(=O)NC(C)(C)C(=O)N[C@@H](CCCCN)C(=O)N[C@@H](CCCNC(=N)N)C(=O)N[C@@H](C)C(=O)N[C@@H](CCC(N)=O)C(=O)N[C@@H](CCC(=O)O)C(=O)N[C@@H](Cc1ccccc1)C(=O)N[C@H](C(=O)NC(C)(C)C(=O)N[C@@H](Cc1c[nH]c2ccccc12)C(=O)N[C@@H](CC(C)C)C(=O)N[C@@H](CCC(=O)O)C(=O)N[C@@H](CC(=O)O)C(=O)N[C@@H](CCC(=O)O)C(=O)N1CCC[C@H]1C(=O)N[C@@H](CO)C(=O)N[C@@H](CO)C(=O)N[C@@H](CCCCN)C(=O)N[C@@H](CO)C(=O)N1CCC[C@H]1C(=O)N1CCC[C@H]1C(=O)N1CCC[C@H]1C(=O)N[C@@H](CO)C(=O)O)C(C)C [Compound A55] (H-YSHGTFTSDYSKYLD[Aib]KRAQEFV[Aib]WLEDEPSSKSPPPS-OH; N-terminus assumed),< 9.00

# Further lines, results first:
row,pEC50,Compound
1,< 9.00,CC[C@H](C)[C@H](NC(=O)[C@@H]1CCCN1C(=O)[C@@H]1CCCN1C(=O)[C@H](CCCCN)NC(=O)[C@H](CC(N)=O)NC(=O)[C@H](CCCNC(=N)N)NC(=O)[C@H](CCCCN)NC(=O)[C@H](CCC(=O)O)NC(=O)[C@H](CC(=O)O)NC(=O)[C@H](CCC(=O)O)NC(=O)[C@H](CC(C)C)NC(=O)[C@H](Cc1c[nH]c2ccccc12)NC(=O)C(C)(C)NC(=O)[C@@H](NC(=O)[C@H](Cc1ccccc1)NC(=O)[C@H](CCC(=O)O)NC(=O)[C@H](CCC(N)=O)NC(=O)[C@H](C)NC(=O)[C@H](CCCNC(=N)N)NC(=O)[C@H](CCCCN)NC(=O)C(C)(C)NC(=O)[C@H](CC(=O)O)NC(=O)[C@H](CC(C)C)NC(=O)[C@H](Cc1ccc(O)cc1)NC(=O)[C@H](CCCCN)NC(=O)[C@H](CO)NC(=O)[C@H](Cc1ccc(O)cc1)NC(=O)[C@H](CC(=O)O)NC(=O)[C@H](CO)NC(=O)[C@@H](NC(=O)[C@H](Cc1ccccc1)NC(=O)[C@@H](NC(=O)CNC(=O)[C@H](Cc1c[nH]cn1)NC(=O)[C@H](CO)NC(=O)[C@@H](N)Cc1ccc(O)cc1)[C@@H](C)O)[C@@H](C)O)C(C)C)C(=O)N[C@@H](C)C(=O)O [Compound A46] (H-YSHGTFTSDYSKYLD[Aib]KRAQEFV[Aib]WLEDEKRNKPPIA-OH; N-terminus assumed)
2,< 9.00,CC(C)C[C@H](NC(=O)[C@H](Cc1ccc(O)cc1)NC(=O)[C@H](CCCCN)NC(=O)[C@H](CO)NC(=O)[C@H](Cc1ccc(O)cc1)NC(=O)[C@H](CC(=O)O)NC(=O)[C@H](CO)NC(=O)[C@@H](NC(=O)[C@H](Cc1ccccc1)NC(=O)[C@@H](NC(=O)CNC(=O)[C@H](Cc1c[nH]cn1)NC(=O)[C@H](CO)NC(=O)[C@@H](N)Cc1ccc(O)cc1)[C@@H](C)O)[C@@H](C)O)C(=O)N[C@@H](CC(=O)O)C(=O)NC(C)(C)C(=O)N[C@@H](CCCCN)C(=O)N[C@@H](CCCNC(=N)N)C(=O)N[C@@H](C)C(=O)N[C@@H](CCC(N)=O)C(=O)N[C@@H](CCC(=O)O)C(=O)N[C@@H](Cc1ccccc1)C(=O)N[C@H](C(=O)NC(C)(C)C(=O)N[C@@H](Cc1c[nH]c2ccccc12)C(=O)N[C@@H](CC(C)C)C(=O)N[C@@H](CCC(=O)O)C(=O)N[C@@H](CC(=O)O)C(=O)N[C@@H](CCC(=O)O)C(=O)N1CCC[C@H]1C(=O)N[C@@H](CO)C(=O)N[C@@H](CO)C(=O)N[C@@H](CCCCN)C(=O)N[C@@H](CCC(N)=O)C(=O)N1CCC[C@H]1C(=O)N1CCC[C@H]1C(=O)N1CCC[C@H]1C(=O)N[C@@H](CO)C(=O)O)C(C)C [Compound A59] (H-YSHGTFTSDYSKYLD[Aib]KRAQEFV[Aib]WLEDEPSSKQPPPS-OH; N-terminus assumed)
3,< 9.00,CC(C)C[C@H](NC(=O)[C@H](Cc1ccc(O)cc1)NC(=O)[C@H](CCCCN)NC(=O)[C@H](CO)NC(=O)[C@H](Cc1ccc(O)cc1)NC(=O)[C@H](CC(=O)O)NC(=O)[C@H](CO)NC(=O)[C@@H](NC(=O)[C@H](Cc1ccccc1)NC(=O)[C@@H](NC(=O)CNC(=O)[C@H](Cc1c[nH]cn1)NC(=O)[C@H](CO)NC(=O)[C@@H](N)Cc1ccc(O)cc1)[C@@H](C)O)[C@@H](C)O)C(=O)N[C@@H](CC(=O)O)C(=O)NC(C)(C)C(=O)N[C@@H](CCCCN)C(=O)N[C@@H](CCCNC(=N)N)C(=O)N[C@@H](C)C(=O)N[C@@H](CCC(N)=O)C(=O)N[C@@H](CCC(=O)O)C(=O)N[C@@H](Cc1ccccc1)C(=O)N[C@H](C(=O)NC(C)(C)C(=O)N[C@@H](Cc1c[nH]c2ccccc12)C(=O)N[C@@H](CC(C)C)C(=O)N[C@@H](CCC(=O)O)C(=O)N[C@@H](CC(=O)O)C(=O)N[C@@H](CCC(=O)O)C(=O)N1CCC[C@H]1C(=O)N[C@@H](CCCCN)C(=O)N[C@@H](CO)C(=O)N[C@@H](CCCCN)C(=O)N[C@@H](CCC(=O)O)C(=O)N1CCC[C@H]1C(=O)N1CCC[C@H]1C(=O)N1CCC[C@H]1C(=O)N[C@@H](CO)C(N)=O)C(C)C [Compound A65] (H-YSHGTFTSDYSKYLD[Aib]KRAQEFV[Aib]WLEDEPKSKEPPPS-NH2; N-terminus assumed)
4,< 9.00,CC(C)C[C@H](NC(=O)[C@H](Cc1ccc(O)cc1)NC(=O)[C@H](CCCCN)NC(=O)[C@H](CO)NC(=O)[C@H](Cc1ccc(O)cc1)NC(=O)[C@H](CC(=O)O)NC(=O)[C@H](CO)NC(=O)[C@@H](NC(=O)[C@H](Cc1ccccc1)NC(=O)[C@@H](NC(=O)CNC(=O)[C@H](Cc1c[nH]cn1)NC(=O)[C@H](CO)NC(=O)[C@@H](N)Cc1ccc(O)cc1)[C@@H](C)O)[C@@H](C)O)C(=O)N[C@@H](CC(=O)O)C(=O)NC(C)(C)C(=O)N[C@@H](CCCCN)C(=O)N[C@@H](CCCNC(=N)N)C(=O)N[C@@H](C)C(=O)N[C@@H](CCC(N)=O)C(=O)N[C@@H](CCC(=O)O)C(=O)N[C@@H](Cc1ccccc1)C(=O)N[C@H](C(=O)NC(C)(C)C(=O)N[C@@H](Cc1c[nH]c2ccccc12)C(=O)N[C@@H](CC(C)C)C(=O)N[C@@H](CCC(=O)O)C(=O)N[C@@H](CC(=O)O)C(=O)N[C@@H](CCC(=O)O)C(=O)N1CCC[C@H]1C(=O)N[C@@H](CCCCN)C(=O)N[C@@H](CO)C(=O)N[C@@H](CCCCN)C(=O)N[C@@H](CO)C(=O)N1CCC[C@H]1C(=O)N1CCC[C@H]1C(=O)N1CCC[C@H]1C(=O)N[C@@H](CO)C(N)=O)C(C)C [Compound A66] (H-YSHGTFTSDYSKYLD[Aib]KRAQEFV[Aib]WLEDEPKSKSPPPS-NH2; N-terminus assumed)
